In assay [1] the target is T1, acetylcholinesterase (Rattus norvegicus, UniProt P37136).
T1 construct: corpora striata dissected free, weighed and homogenized in 19 volumes; from tissue; host or cells: corpus striatum of male Wistar rats, whole homogenate in 0.05M phosphate buffer pH 7.2
T1 sequence (P37136 32-614): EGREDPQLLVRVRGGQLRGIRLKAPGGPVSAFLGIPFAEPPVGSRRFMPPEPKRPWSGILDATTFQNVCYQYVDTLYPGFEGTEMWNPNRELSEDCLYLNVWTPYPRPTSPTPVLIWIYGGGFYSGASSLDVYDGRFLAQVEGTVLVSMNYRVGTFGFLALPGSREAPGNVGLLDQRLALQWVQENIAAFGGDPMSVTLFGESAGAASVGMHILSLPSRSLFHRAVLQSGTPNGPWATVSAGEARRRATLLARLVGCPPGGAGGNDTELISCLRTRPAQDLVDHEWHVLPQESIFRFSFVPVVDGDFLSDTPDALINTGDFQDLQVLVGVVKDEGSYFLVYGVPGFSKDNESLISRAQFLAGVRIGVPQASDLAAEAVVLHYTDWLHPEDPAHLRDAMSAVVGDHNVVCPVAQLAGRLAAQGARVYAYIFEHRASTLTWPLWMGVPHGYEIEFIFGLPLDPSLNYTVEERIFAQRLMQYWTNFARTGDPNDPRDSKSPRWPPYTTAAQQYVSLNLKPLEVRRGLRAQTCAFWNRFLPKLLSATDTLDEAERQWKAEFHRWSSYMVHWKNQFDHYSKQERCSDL
The assay is described as follows: In Vitro Inhibition of Acetylcholinesterase Activity in Rat Striatum. The assay is classed as biochemical. The text has this:
Cholinesterases are found throughout the body, both in the brain and in serum. However, only brain acetylcholinesterase (AChE) distribution is correlated with central cholinergic innervation.
The method described below was used in this invention for assaying cholinesterase activity. This is a modification of the method of Ellman et al., Biochem. Pharmacol. 7, 88 (1961).
1. 0.05M Phosphate buffer, pH 7.2
(c) add (a) to (b) until pH reaches 7.2
4. […] Drugs are serially diluted (1:10) such that the final concentration (in cuvette) is 10^-4 M and screened for activity. If active, IC50 values are determined from the inhibitory activity of subsequent concentrations.
Male Wistar rats are decapitated, brains rapidly removed, corpora striata dissected free, weighed and homogenized in 19 volumes (approximately 7 mg protein/ml) of 0.05M phosphate buffer, pH 7.2 using a Potter-Elvehjem homogenizer. A 25 microliter aliquot of the homogenate is added to 1.0 milliter vehicle or various concentrations of the test drug and preincubated for 10 minutes at 37° C.
Enzyme activity is measured with the Beckman DU-50 spectrophotometer. This method can be used for IC50 determinations and for measuring kinetic constants.
Reagents are added to the blank and sample cuvettes as follows:
Blank values are determined for each run to control for non-enzymatic hydrolysis of substrate and these values are automatically subtracted by the kindata program available on kinetics soft-pac module. This program also calculates the rate of absorbance change for each cuvette.
Substrate concentration is 10 mM diluted 1:2 in assay yielding final concentration of 5 mM. DTNB concentration is 0.5 mM yielding 0.25 mM final concentration. [formula] IC50 values are calculated from log-probit analysis

The test system of assay [2] is Scopolamine Induced Memory Deficit. Type of assay: in vivo, mice. As to the method: In this assay mice are tested for their ability to remember an unpleasant stimulus for a period of 24 hours. A mouse is placed in a chamber that contains a dark compartment; a strong incandescent light drives it to the dark compartment, where an electric shock is administered through metal plates on the floor. The animal is removed from the testing apparatus and tested again, 24 hours later, for the ability to remember the electric shock.
If scopolamine, an anticholinergic agent that is known to cause memory impairment, is administered before an animal's initial exposure to the test chamber, the animal re-enters the dark compartment shortly after being placed in the test chamber 24 hours later. This effect of scopolamine is blocked by an active test compound, resulting in a greater interval before re-entry into the dark compartment.
The results for an active compound are expressed as the percent of a group of animals in which the effect of scopolamine is blocked, as manifested by an increased interval between being placed in the test chamber and re-entering the dark compartment.
Results of this assay for some of the compounds of this invention and those for tacrine (reference compound) are presented in Table 2.

The record followed here is US5231093A, “Carbamate derivatives of 4-amino-3-isoxazolidinones, 3-amino-1-hydroxypyrrolidin-2-ones and 1-amino-1-cyclopropanecarboxylic acid analogs” (priority 1992, dated 1993).

Counter-ions that a name gives are not always drawn. Like-named read-outs stand apart in the source and are kept apart here.

`CN1CC[C@@]2(C)c3cc(OC(=O)N[C@@H]4CCN(OCc5ccccc5)C4=O)ccc3N(C)[C@@H]12` [(3aS-cis)-1,2,3,3a,8,8a-Hexahydro-1,3a,8-trimethylpyrrolo-[2,3-b]indol-5yl [2-oxo-1-(phenylmethoxy)-3R-pyrrolidinyl]carbamate] had a concentration for half-maximal inhibition (IC50) in assay [1] of 67 nM.

In assay [1], `CN1CC[C@@]2(C)c3cc(OC(=O)N[C@@H]4CCN(O)C4=O)ccc3N(C)[C@@H]12` [(3aS-cis)-1,2,3,3a,8,8a-Hexahydro-1,3a,8-trimethylpyrrolo[2,3-b]indol-5-yl [2-oxo-1-(hydroxy)-3R-pyrrolidinyl]carbamate, citrate salt] returned a half-maximal inhibitory concentration (IC50) of 2310 nM.

Regarding `CN1CC[C@@]2(C)c3cc(OC(=O)N[C@@H]4CON(Cc5ccccc5)C4=O)ccc3N(C)[C@@H]12` [(3aS-cis)-1,2,3,3a,8,8a-Hexahydro-1,3a,8-trimethypyrrolo-[2,3-b]indol-5-yl [2-(phenylmethyl)-3-oxo-4R-isoxazolidinyl]-carbamate hemihydrate], the concentration for half-maximal inhibition (IC50) in assay [1] worked out at 500 nM. Also, in assay [2] (mice, 0.3 mg/kg of body weight, s.c, 24 hours), the “% of Animals with Scopolamine Induced Memory Deficit Reversal” value stood at 27%. As to `Nc1c2c(nc3ccccc13)CCCC2` [Tacrine, reference compound], in assay [2] (mouse, in vivo, 0.63 mg/kg), the “% of Animals with Scopolamine Induced Memory Deficit Reversal” value came out at 13%.

What is called IC50 is the concentration that gives 50% inhibition.
